The text below walks through data of patent US5073551A, “Cephalosporin compounds” (Sagami Chemical Research Center, priority 1988, dated 1991).

Series [1] can be described thus: In-vivo absorption test, serum concentration after oral administration (bioassay). Details: species or system Wistar type rat (male). Conditions: 50 mg/kg, fasted male Wistar rat, bioassay with Bacirus cereus S1101, read-out: Blood concentration / Serum concentration; for concentration at 1 h: 1 hr after oral administration; for concentration at 2 h: 2 hr after oral administration; for concentration at 4 h: 4 hr after oral administration.

The next series relates to S. aureus 209 P-JC. Briefly: In-vitro antibacterial activity test, minimum growth inhibitory concentration (MIC), S. aureus. Format: cell-based. The following applies: Staphylococcus aureus, 209PJC, read-out: Minimum growth inhibitory concentration.
The test system of a further series is P. mirabilis IFO 3849. Briefly: In-vitro antibacterial activity test, minimum growth inhibitory concentration (MIC), P. mirabilis. Format: cell-based. The following applies: Proteus mirabilis.
Where [2] appears, read: IFO3849, P. mirabilis IFO 3849, read-out: Minimum growth inhibitory concentration.

Each structure is given as a SMILES string. Values after ≈ are worked out from the molar mass of the structure shown. Like-named read-outs stand apart in the source and are kept apart here.

In the case of `Nc1nc(/C(=N/O)C(=O)NC2C(=O)N3C(C(=O)[O-])=C(/C=C\c4csnn4)CS[C@H]23)cs1.[Na+]` (stereo partly shown), in series [1], the concentration at 1 h was 4800 ng/mL, the concentration at 2 h stood at 6000 ng/mL and the concentration at 4 h came to 6000 ng/mL. In the series with S. aureus 209 P-JC, the MIC is at most 0.025 µg/mL. Besides, in the series with P. mirabilis IFO 3849 (IFO3849, read-out: Minimum growth inhibitory concentration), the MIC turned out to be 0.1 µg/mL.

For the compound `CCOC(=O)OC(C)OC(=O)C1=C(/C=C\c2csnn2)CSC2C(NC(=O)/C(=N\O)c3csc(N)n3)C(=O)N12` (racemic) [Example 22, DL-1-ethoxycarbonyloxyethyl 7-[(Z)-(2-aminothiazol-4-yl)-2-hydroxyiminoacetamido]-3-[(Z)-2-(1,2,3-thiadiazol-4-yl)vinyl]-3-cephem-4-carboxylate], in series [1], the concentration at 1 h is 26600 ng/mL, the concentration at 2 h is 37800 ng/mL and the concentration at 4 h was 26700 ng/mL.

As to `CC(=O)OC(C)OC(=O)C1=C(/C=C\c2csnn2)CSC2C(NC(=O)/C(=N\O)c3csc(N)n3)C(=O)N12` (racemic) [Example 23, DL-1-acetyloxyethyl 7-[(Z)-2-(2-aminothiazol-4-yl)-2-hydroxyiminoacetamido]-3-[(Z)-2-(1,2,3-thiadiazol-4-yl)vinyl]-3-cephem-4-carboxylate], in series [1], the concentration at 1 h was 72100 ng/mL, the concentration at 2 h stood at 56600 ng/mL and the concentration at 4 h worked out at 33400 ng/mL.

On to `C=CC1=C(C(=O)O)N2C(=O)C(NC(=O)/C(=N\OCC(=O)O)c3csc(N)n3)C2SC1` (stereo not shown) [A, reference compound], for which the values for the MIC with S. aureus 209 P-JC (S. aureus 209 P-JC) and in the series on P. mirabilis IFO 3849 (setting [2]) were 12.5 µg/mL (≈ 27.6 µM) and at most 0.025 µg/mL, respectively.

For `Cc1nnsc1/C=C\C1=C(C(=O)[O-])N2C(=O)C(NC(=O)/C(=N\O)c3csc(N)n3)[C@H]2SC1.[Na+]` (stereo partly shown) [Example 14, sodium 7-[(Z)-2-(2-aminothiazol-4-yl)-2-hydroxyiminoacetamido]-3-[(Z)-2-(4-methyl-1,2,3-thiadiazol-5-yl)vinyl]-3-cephem-4-carboxylate], the MIC in the series on S. aureus 209 P-JC (S. aureus 209 P-JC) worked out at 0.1 µg/mL; in the series on P. mirabilis IFO 3849 (setting [2]), 0.39 µg/mL.

Consider `Cc1snnc1/C=C\C1=C(C(=O)[O-])N2C(=O)C(NC(=O)/C(=N\O)c3csc(N)n3)[C@H]2SC1.[Na+]` (stereo partly shown) [Example 18, sodium 7-[(Z)-2-(2-aminothiazol-4-yl)-2-hydroxyiminoacetamido]-3-[(Z)-2-(5-methyl-1,2,3-thiadiazol-4-yl)vinyl]-3-cephem-4-carboxylate], for which the MIC is 0.2 µg/mL in the series on S. aureus 209 P-JC (S. aureus 209 P-JC) and 0.39 µg/mL in the series with P. mirabilis IFO 3849 (setting [2]).

Take `CC(C)(C)C(=O)OCOC(=O)C1=C(/C=C\c2csnn2)CS[C@@H]2C(NC(=O)/C(=N\O)c3csc(N)n3)C(=O)N12` (stereo partly shown) [Example 19, pivalyloxymethyl 7-[(Z)-(2-aminothiazol-4-yl)-2-hydroxyiminoacetamido]-3-[(Z)-2-(1,2,3-thiadiazol-4-yl)vinyl]-3-cephem-4-carboxylate]: in series [1], the concentration at 1 h is 11300 ng/mL, the concentration at 2 h is 9800 ng/mL and the concentration at 4 h is 5800 ng/mL.

Take `Nc1nc(/C(=N/O)C(=O)NC2C(=O)N3C(C(=O)O)=C(/C=C\c4cnns4)CSC23)cs1` (stereo not shown) [Example 21]: the results for the MIC in the series with S. aureus 209 P-JC (S. aureus 209 P-JC) and with P. mirabilis IFO 3849 (setting [2]) were 0.2 µg/mL (≈ 0.417 µM) and 0.39 µg/mL (≈ 0.813 µM), respectively.
